Assay results from patent US7429396B2, “Antifungal composition, its fungicidal effect on pathogenic dermatophytes, and process for inhibiting growth of fungi” (Bio-Botanica, Inc., priority 2003, dated 2008).
≈ marks a conversion by molar mass, not a printed value.

Experiments:
Assay type in all cases: cell-based
[1] = system: Epidermophyton floccosum ATCC 52066; experiment: Macrodilution broth MIC/MFC test on dermatophytes (Example 4); details: for MIC: Epidermophyton floccosum, ATCC52066, read-out: Minimum Inhibitory Concentration (MIC)
Experimental: (§1) The organisms used included Epidermophyton floccosum ATCC 52066, Trichophyton mentagrophytes ATCC 9533, and Microsporum canis ATCC 36299. The molds were cultured on Oatmeal Agar slants to allow for conidial formation and incubated for 7 days at 25° C. For each mold, 5 ml of sterile 0.85% NaCl was added to each slant, the culture surface was rubbed with a sterile wooden applicator stick, and the suspension was then transferred to a sterile tube. By comparison to the McFarland 0.5 turbidity standard, the suspension was adjusted by adding sterile 0.85% NaCl as necessary. The resulting suspension was c.1×10^8 CFU/ml. Then 300 μl of organism suspension was added to 10 ml of sterile saline, diluting it to c.1×10^6 CFU/ml.
(§2) The Macrodilution broth method was performed using serial two-fold dilutions of RPMI-1640 (Sigma) with L-glutamine but without sodium bicarbonate.
(§3) Six 18×150 tubes of RPMI-1640 were used for each organism tested. Starting with tube 1 containing 20 ml RPMI labeled as 0.250 μl/ml and then tubes 2 through 6 containing 10 ml RPMI labeled as 0.125 μl/ml, 0.06 μl/ml, 0.03 μl/ml, 0.015 μl/ml, and 0.008 μl/ml respectively. • 1. 26 μl of each product of Examples 1-3 was added to 1000 μl DMSO. The final concentration of DMSO is kept below 1%. • 2. 200 μl of the sample dilution (26 μl/ml) was added to tube 1 (20 ml of RPMI-1640) making an initial concentration of 0.250 μl/ml. • 3. A serial dilution was performed, pipetting 10 ml from tube 1 to tube 2; continuing the dilution to tube 6.
(§4) For the Clotrimazole, Mycelex® and Ciclopirox Olamine, ten 18×150 tubes of RPMI-1640 were used for each organism tested. Starting with tube 1 containing 20 ml RPMI labeled 16 μg/ml and then tubes 2 through 10 containing 10 ml RPMI labeled as 8.0 μg/ml, 4.0 μg/ml, 2.0 μg/ml, 1.0 μg/ml, 0.50 μg/ml, 0.25 μg/ml, 0.125 μg/ml, 0.06 μg/ml and 0.03 μg/ml respectively. • 1. 160 mg of active ingredient was added to 100 ml DMSO. • 2. 200 μl of the sample dilution (1600 μg/ml) was added to tube 1 (20 ml of RPMI-1640) making an initial concentration of 16 μg/ml. • 3. A serial dilution was performed, pipetting 10 ml from tube 1 to tube 2; continuing the dilution to tube 10. Inoculation and Incubation
(§5) Once the tubes were arranged according to product, concentration and mold type, 300 μl of appropriate mold inoculum was added to each tube and the tubes were then placed in an incubator at 35° C. along with a purity plate for inoculum verification for each mold. The final mold inoculum level was c.1×10^4 CFU/ml. As controls, one tube with 10 ml RPMI was used for the “Negative Control”, and 3 tubes with 10 ml RPMI plus 300 μl mold inoculum were used for the positive controls (one for each mold).
(§6) Final results were recorded after 7 days. Growth (G) was noted when there was full growth visible (i.e. the tube appeared as cloudy as the positive control tube). Partial activity (P) was recorded when the broth in the tube was less turbid than the positive control tube. No growth (I) was recorded when there was total inhibition and the broth in the tube appeared clear (in comparison with the negative control tube).
(§7) The MIC measures fungistatic activity as the lowest concentration that will inhibit growth of the mold. […] The MIC for an azole is the lowest concentration capable of inhibiting 80% growth, which would be a result of partial inhibition (P), one dilution below full inhibition.
(§8) The MFC measures the lowest concentration of the test agent that will kill the fungi. The fungicidal activity of the products was determined by subculturing 20 μl from tubes with no visible growth onto properly labeled SDA plates. Also 20 μl from the last tube with growth and 20 μl from the positive control tube were subcultured as controls. All plates were incubated at 25° C. for 14 days. The MFC was recorded as the lowest concentration showing no growth or <3 colonies of growth, which equals 99-99.5% killing activity.

[2] = system: Microsporum canis ATCC 36299; experiment: as above; details: for MIC: Microsporum canis, ATCC36299, read-out: Minimum Inhibitory Concentration (MIC)
Experimental: as §1, §2, §3, §4, §5, §6, §7, §8

[3] = system: Trichophyton mentagrophytes ATCC 9533; experiment: as above; details: for MIC: Trichophyton mentagrophytes, ATCC9533, read-out: Minimum Inhibitory Concentration (MIC)
Experimental: as §1, §2, §3, §4, §5, §6, §7, §8

[4] = system: all organisms (Epidermophyton floccosum, Trichophyton mentagrophytes, Microsporum canis); experiment: Macrodilution broth MIC/MFC, all dermatophytes tested (Example 4); details: for MIC: all dermatophytes
Experimental: as §1, §2, §3, §4, §5, §6, §7, §8

| growth score, MIC test ([1]; 8.0 μg/ml) | growth score, MIC test ([1]; 16.0 μg/ml) | MIC [1] [mg/L] | growth score, MIC test ([2]; 8.0 μg/ml) | growth score, MIC test ([2]; 16.0 μg/ml) | MIC [2] [mg/L] | growth score, MIC test ([3]; 16.0 μg/ml) | MIC [3] [mg/L] | MIC to Inhibit all organisms [4] [%] | MIC [4] [mg/L] | SMILES | concentration at which still unable to kill the dermatophytes (MFC) [4] | fungistatic or fungicidal activity [4] | further results |
| --- | --- | --- | --- | --- | --- | --- | --- | --- | --- | --- | --- | --- | --- |
| I | I | 0.06 (≈ 0.174 µM) | I | I | 0.06 (≈ 0.174 µM) | I | 0.06 (≈ 0.174 µM) | 0.000006 | 0.06 (≈ 0.174 µM) | Clc1ccccc1C(c1ccccc1)(c1ccccc1)n1ccnc1 [Clotrimazole] | greater than 4 μg/ml | fungistatic not fungicidal | growth score, MIC test ([1]; 0.125 μg/ml): I; growth score, MIC test ([1]; 0.250 μg/ml): I; growth score, MIC test ([1]; 0.50 μg/ml): I; growth score, MIC test ([1]; 1.0 μg/ml): I; growth score, MIC test ([1]; 2.0 μg/ml): I; growth score, MIC test ([1]; 4.0 μg/ml): I; growth score, MIC test ([2]; 0.125 μg/ml): I; growth score, MIC test ([2]; 0.250 μg/ml): I; growth score, MIC test ([2]; 0.50 μg/ml): I; growth score, MIC test ([2]; 1.0 μg/ml): I; growth score, MIC test ([2]; 2.0 μg/ml): I; growth score, MIC test ([2]; 4.0 μg/ml): I; growth score, MIC test ([3]; 0.125 μg/ml): I; growth score, MIC test ([3]; 0.250 μg/ml): I; growth score, MIC test ([3]; 0.50 μg/ml): I; growth score, MIC test ([3]; 1.0 μg/ml): I; growth score, MIC test ([3]; 2.0 μg/ml): I; growth score, MIC test ([3]; 4.0 μg/ml): I; growth score, MIC test ([3]; 8.0 μg/ml): I |
| I | I | 8 (≈ 38.6 µM) | I | I | 4 (≈ 19.3 µM) | I | 16 (≈ 77.2 µM) | 0.0016 | 16 (≈ 77.2 µM) | Cc1cc(C2CCCCC2)n(O)c(=O)c1 [Ciclopirox Olamine] | greater than 32 μg/ml | fungistatic not fungicidal |  |
